The text below walks through data of patent US20250304630A1, “POLYPEPTIDES HAVING OSMOPROTECTIVE ACTIVITY, COMPOSITIONS THEREOF AND USES THEREOF” (DELAVIE SCIENCES, LLC, priority 2022, published 2025).

One may read the viability as a read-out of living cells in per cent, often relative to untreated cells.

A short description of data set [1]: HORAC assay (OxiSelect HORAC Assay), loss of FITC fluorescence. The data set is classed as biochemical. The method, then:
(§1) This assay procedure was used to screen materials for antioxidant properties using non-cell-based methods. Dilutions of HSP tested were 10%, 5%, 1%, 0.5%, 0.1%, 0.05%, and 0.01%.
(§2) Fluorescein (FITC) is normally a highly fluorescent molecule, yet when fluorescein is oxidized by either peroxyl radicals or hydroxyl radicals, it loses its fluorescence. Thus, when FITC is incubated in the presence of 2,2′-azobis(2-amidino-propane) dihydrochloride (AAPH, a peroxyl radical generating compound), or a combination of hydrogen peroxide and cobalt (a hydroxyl radical generating system based on the Fenton-type reaction), there will be a time dependent loss of FITC fluorescence. However, if a material with antioxidant properties is present during the incubation, the loss of fluorescence will be delayed as some of the peroxyl or hydroxyl radicals react with the antioxidant material instead of the FITC. Under these conditions, the delay or prevention in fluorescence decay will be in proportion to the antioxidant capacity of the test material.
The HORAC assay was performed as specified by the manufacturer of the kit. For the assay, the test materials were prepared in Assay Buffer at 10× their final desired concentrations. Caffeic acid was used as the positive control for this assay. To start the assay, 20 μl of the test material or positive control were added to the wells of a 96-well plate. All of the samples were prepared in triplicate. Next, 140 μl of an FITC solution was added to each well and the plate was incubated for 30 minutes in the dark. After this incubation, 20 μl of a hydrogen peroxide solution (Hydroxyl Radical Initiator) was added to each well, followed by the addition of 20 μl of a cobalt solution (Fenton Reagent). The plate was mixed and then read using a Fluoroskan Ascent Fluorometer at 3-minute intervals for 60 minutes with an excitation wavelength of 480 nm and an emission wavelength of 518 nm.
(§3) The loss of FITC fluorescence can be graphed by plotting fluorescence intensity vs time for each of the samples to generate a fluorescence decay curve. The area under this curve (AUC) then represents the extent of FITC fluorescence loss over the course of the assay, and this measurement is then used as an index for the effectiveness of the antioxidant samples. The AUC for a sample can be calculated using the following equation: […]
(§4) Where RFUO is the initial fluorescence measurement of the sample at time 0, with each subsequent RFU measurement indicated by the respective increased numbers. The AUC measurements were then used to determine the percent inhibition for each concentration of the test material screened, followed by the determination of the IC50, the concentration of the material at which 50% of the FITC signal loss due to radical interaction is prevented.

The subject of a further data set is human keratinocytes. Kind of data set: Osmotic stress assay: keratinocytes pretreated, exposed to hypertonic NaCl media, viability by MTT. It counts as cell-based. To be noted: for Cell Viability: MTT, % of untreated 0 mM NaCl control, mean +/- SD. Here is the method: (§5) This assay procedure was used to screen the recombinantly produced HSP for its ability to protect against osmotic stress, using cultured human keratinocytes as the testing model. The assay used changes in cell viability as the endpoint for measuring the protective effect.
(§6) For this study, human keratinocytes were pretreated for 24 hours with either HSP, a mild hypertonic solution of sorbitol (positive control), or left untreated (negative control). After the pretreatment, the cell culture media was replaced with media supplemented with NaCl at progressively increasing hypertonic concentrations. The cells were then incubated again for 24 hours. After the second incubation, cell viability was determined using an MTT assay.
(§7) The MTT assay is a colorimetric analysis of the metabolic activity of the cell, which is a reflection of cell viability. Viable cells can take up MTT, which is then reduced by mitochondria, resulting in the formation of insoluble purple formazin crystals. These crystals are then extracted from the cells with isopropanol and quantified spectrophotometrically. The intensity of the purple color is directly proportional to the number of viable cells.
(§8) Human adult epidermal keratinocytes were grown using EpiLife Media (60 µM calcium) supplemented with 0.2% v/v bovine pituitary extract, 1 μg/ml recombinant human insulin-like growth factor-1, 0.18 μg/ml hydrocortisone, 5 μg/ml bovine transferrin, 0.2 ng/ml human epidermal growth factor. When a sufficient number of cells had been grown, they were transferred to 96-well plates and cultured for a minimum of 24 hours to allow the cells to adhere to the well plates. The cells were then used when they were fully confluent.
(§9) The test materials and the sorbitol positive controls were prepared in fully supplemented EpiLife media. Supplemented EpiLife media alone served as the untreated control. These solutions were applied to the keratinocytes in the 96-well plates, after which the plates were incubated for 24 hours at 37±2° C. and 5±1% CO2.
(§10) After the pretreatment incubation, the cell culture media was removed from both of the 96-well plates and replaced with supplemented EpiLife media which had progressively increasing concentrations of additional NaCl added (0, 75, 100, 125 and 150 mM) to generate a series of increasingly hypertonic solutions. After the addition of the media/NaCl, the 96-well plates were incubated for an additional 24 hours.
(§11) After the second 24-hour incubation, the cell culture media was removed and the cells were washed once with phosphate buffered saline. After washing, 100 μl of keratinocyte cell culture media supplemented with MTT (0.5 mg/ml) was added to each well. The 96-well plates were returned to the incubator (37+2° C. and 5+1% CO2) for one hour. After the incubation the MTT solution was removed via aspiration and the cells were rinsed twice with phosphate buffered saline to remove any residual MTT on the outside of the cells and then 100 μl of isopropyl alcohol was added to the wells to extract the purple formazin crystals. The well plates were then read at 540 nm using isopropyl alcohol as a blank.
(§12) The mean MTT absorbance value for the untreated control cells not exposed to any osmotic stress (0 mM NaCl) was calculated and used to represent 100% cell viability. The individual MTT values from the cells undergoing the various treatments were then divided by the mean value for the negative control cells and expressed as a percentage to determine the change in cell viability caused by each treatment.

Experiment in data set [2]: as above
It counts as cell-based, human. To be noted: human, human adult epidermal keratinocytes, then 24 h with 0 mM added NaCl, MTT, % of untreated 0 mM NaCl control, mean +/- SD, read-out: Cell Viability. Here is the method: as §5, §6, §7, §8, §9, §10, §11, §12

The nature of data set [3]: ORAC assay, loss of FITC fluorescence with AAPH. It counts as biochemical. The method, then: as §1, §2
For the ORAC assay, the test materials were prepared in Assay Buffer at 10× their final desired concentrations. Trolox was used as the positive control for this assay. To start the assay, 20 μl of the test material or positive control were added to the wells of a 96-well plate. All of the samples were prepared in triplicate. Next, 160 μl of a 360 nM FITC solution was added to each well and the plate was incubated for 30 minutes in the dark. After this incubation, 20 μl of a 153 mM AAPH (peroxyl radical generator) was added to each well. The plate was mixed and then read using a Fluoroskan Ascent Fluorometer at 2.5-minute intervals for 60 minutes with an excitation wavelength of 480 nm and an emission wavelength of 518 nm.
as §3, §4

Setting [4] is: concentration at which 50% of the FITC signal loss is prevented.

The structures appear in SMILES notation. Marks after values point to notes of the source that are not given here.

Consider `O=C(O)/C=C/c1ccc(O)c(O)c1` [Caffeic Acid, Caffeic acid, reference compound], for which the “Percent Inhibition” value is on record as 8.85% in data set [1] (concentration 0.625 ug/ml); 14.56% in data set [1] (concentration 1.25 ug/ml); 56.30% in data set [1] (concentration 2.5 ug/ml); 68.86% in data set [1] (concentration 5 ug/ml); 60.03% in data set [1] (concentration 10 ug/ml); 62.58% in data set [1] (concentration 20 ug/ml). Further, the IC50 result in data set [1] (setting [4]) is recorded as “IC50: 3.25 ug/ml”.

Turning to `OC[C@@H](O)[C@@H](O)[C@H](O)[C@@H](O)CO` [Sorbitol, sorbitol, reference compound], the “Cell Viability” value in the data set on human keratinocytes (24 h pretreatment with 12.5 mM Sorbitol, then 24 h with 75 mM added NaCl) is given as 103.2 +/− 1.8%; with human keratinocytes (24 h pretreatment with 12.5 mM Sorbitol, then 24 h with 100 mM added NaCl), 98.3 +/− 6.0* %; in the data set on human keratinocytes (24 h pretreatment with 12.5 mM Sorbitol, then 24 h with 125 mM added NaCl) it was 73.2 +/− 13.3* %; in the data set on human keratinocytes (24 h pretreatment with 12.5 mM Sorbitol, then 24 h with 150 mM added NaCl) it was 24.1 +/− 9.6%; in the data set on human keratinocytes (24 h pretreatment with 25 mM Sorbitol, then 24 h with 75 mM added NaCl), 100.0 +/− 7.7%; with human keratinocytes (24 h pretreatment with 25 mM Sorbitol, then 24 h with 100 mM added NaCl), 93.9 +/− 2.8* %. For the same molecule, the “Cell Viability” value in the data set with human keratinocytes (24 h pretreatment with 25 mM Sorbitol, then 24 h with 125 mM added NaCl) is given as 69.5 +/− 9.7* %; in the data set on human keratinocytes (24 h pretreatment with 25 mM Sorbitol, then 24 h with 150 mM added NaCl), 29.5 +/− 5.6%. Besides, in the data set on human keratinocytes (at both 100 mM and 125 mM NaCl), the “cell viability versus untreated cell samples” value is “significantly greater than the untreated cell samples”. For the same molecule, the osmoprotective effect entry in the data set on human keratinocytes (highest concentration of added NaCl (150 mM)) is reported as “neither HSP nor sorbitol (positive control) showed a significant osmoprotective effect”. Further, the “effect on the reduction in cell viability caused by the increase in hypertonicity” value in the data set on human keratinocytes (increasing added NaCl, overall statement) is “slow the reduction in cell viability”. In data set [2] (24 h pretreatment with 12.5 mM Sorbitol), the viability at 24 h, 12.5 mM amounted to 101%. Also, the viability at 24 h, 25 mM in data set [2] (24 h pretreatment with 25 mM Sorbitol) worked out at 122%.

Consider `Cc1c(C)c2c(c(C)c1O)CCC(C)(C(=O)O)O2` (stereo not shown) [Trolox, reference compound], for which the “Percent Inhibition” value in data set [3] (concentration 0.078125 ug/ml) came out at 30.79%; in data set [3] (concentration 0.15625 ug/ml) it was 47.09%; in data set [3] (concentration 0.3125 ug/ml) it was 68.77%; in data set [3] (concentration 0.625 ug/ml), 83.84%; in data set [3] (concentration 1.25 ug/ml), 84.06%; in data set [3] (concentration 2.5 ug/ml), 87.4%. Also, in data set [3] (concentration 5 ug/ml), the “Percent Inhibition” value is 90.3%. The IC50 result in data set [3] (setting [4]) is listed as “IC50: 0.42 ug/ml”.
